Measurements as given in patent US9090899B2, “Methods of diagnosing and treating prostate cancer characterized by NDRG1-ERG fusion” (CORNELL UNIVERSITY, priority 2009, dated 2015).

Columns and labels:
Format in all cases: cell-based
[1] = tested on: SLC45A3 mRNA; test: Hormone treatment of LNCaP cells, SLC45A3 mRNA by TAQMAN quantitative RT-PCR; details: for Induction of SLC45A3 mRNA: LNCaP cells, 3 hours, 10 nM 17β-estradiol or 10 nM DPN; for SLC45A3 mRNA expression: serum-starved LNCaP cells, 1 nM R1881 or 10 nM E2, 3, 12 and 24 h, fold change against vehicle (Ethanol), normalized against TCFL1
Protocol: (§1) FIG. 6. Hormone treatment of LNCaP cells induced SLC45A3 and NDRG1 mRNA expression. SLC45A3 (A and C) or NDRG1 (B and D) mRNA expression was induced upon stimulation with synthetic androgen (R1881) and 17β-estradiol (E2). Serum-starved LNCaP cells were stimulated with 1 nM R1881, 1 nM R1881 in combination with 10 μM Flutamide (A and B), 10 nM E2 or 10 nM diarylpropionitrile (DPN) (C and D) for 3, 12 and 24 h. Samples were run in triplicate and normalized against TCFL1. Columns indicate the mean fold change of induction of three biological replicates against vehicle (Ethanol) only treated cells for the respective time points±SEM.
(§2) Hormone Treatment of LNCaP—The prostate cancer cell line LNCaP was obtained from ATCC (Manassas, Va.; cat.#CRL-1740) and maintained according to the suppliers instructions. For hormonal treatment, cells were plated (500,000 cells/10 cm^2) in the presence of complete growth medium supplemented with 1% Penicillin/Streptomycin. Cells were starved for 48 h in charcoal-stripped (CS) medium (RPMI-1640 1×, 5% charcoal-stripped […], 1% Penicillin/Streptomycin) and then treated with R1881 (1 nM), 17β-estradiol (10 nM), diarylpropionitrile (DPN, 10 nM) or ethanol vehicle for 3, 12, and 24 hours. RNA was extracted using the TRIzol Reagent (Invitrogen, Carlsbad, Calif.), subjected to DNase treatment (DNA-free™ Kit, Applied Biosystems) according to the manufacturer's instructions. To test for the specificity of androgen-stimulation, cells were treated with10 μM Flutamide for 2 hours and then treated with R1881 as described above. TAQMAN expression assays (Applied Biosystems) were used to quantify relative levels of SL45A3, NDRG1, PSA (KLK3) and IGF1R.

[2] = tested on: PSA (KLK3) mRNA; test: Hormone treatment of LNCaP cells, PSA mRNA by TAQMAN quantitative RT-PCR; details: serum-starved LNCaP cells; 1 nM R1881 or 10 nM E2; 3, 12 and 24 h; fold change against vehicle (Ethanol), normalized against TCFL1
Protocol: (§3) FIG. 7. Androgen and 17β-estradiol (E2) signaling of known target genes in LNCaP cells. IGF2R (A) and PSA (B) mRNA expression was induced upon stimulation with synthetic androgen (R1881) and E2. Serum-starved LNCaP cells were stimulated with 1 nM R1881, 1 nM R1881 in combination with 10 μM Flutamide, 10 nM E2 or 10 nM diarylpropionitrile (DPN) for 3, 12 and 24 h. Total RNA was extracted and used for quantitative RT-PCR using TAQMAN assay. Samples were run in triplicate and normalized against TCFL1. Columns indicate the mean fold change of induction of three biological replicates against vehicle (Ethanol) only treated cells for the respective time points±SEM.
as §2, with “RNA was extracted using the TRIzol Reagent (Invitrogen, Carlsbad, Calif.), subjected to DNase treatment (DNA-free™ Kit, Applied Biosystems) according to the manufacturer's instructions. To test for the specificity of androgen-stimulation, cells were treated with10 μM Flutamide for 2 hours and then treated with R1881 as described above.” left out

[3] = tested on: NDRG1 mRNA; test: Hormone treatment of LNCaP cells, NDRG1 mRNA by TAQMAN quantitative RT-PCR; details: for Induction of NDRG1 mRNA: LNCaP cells, 12 hours, 10 nM 17β-estradiol or 10 nM DPN; for NDRG1 mRNA expression: serum-starved LNCaP cells, 1 nM R1881 or 10 nM E2, 3, 12 and 24 h, fold change against vehicle (Ethanol), normalized against TCFL1
Protocol: as §1, §2

[4] = tested on: IGF2R mRNA; test: Hormone treatment of LNCaP cells, IGF2R mRNA by TAQMAN quantitative RT-PCR; details: serum-starved LNCaP cells; 1 nM R1881 or 10 nM E2; 3, 12 and 24 h; fold change against vehicle (Ethanol), normalized against TCFL1
Protocol: as §3
as §2, with “RNA was extracted using the TRIzol Reagent (Invitrogen, Carlsbad, Calif.), subjected to DNase treatment (DNA-free™ Kit, Applied Biosystems) according to the manufacturer's instructions. To test for the specificity of androgen-stimulation, cells were treated with10 μM Flutamide for 2 hours and then treated with R1881 as described above.” left out

Row | Compound | Induction of SLC45A3 mRNA [1] | SLC45A3 mRNA expression [1] | PSA mRNA expression [2] | Induction of NDRG1 mRNA [3] | NDRG1 mRNA expression [3] | IGF2R mRNA expression [4]
1 | C[C@]12CC[C@@H]3c4ccc(O)cc4CC[C@H]3[C@@H]1CC[C@@H]2O [17β-estradiol] | observed | induced | induced | observed | induced | induced
2 | N#CC(Cc1ccc(O)cc1)c1ccc(O)cc1 (stereo not drawn) [DPN, diarylpropionitrile] | not | – | – | not | – | –
3 | C[C@]1(O)CC[C@H]2[C@@H]3CCC4=CC(=O)CCC4=C3C=C[C@@]21C [R1881] | – | induced | induced | – | induced | induced
